According to patent publication US12497406B2, “Microbiocidal derivatives” (SYNGENTA CROP PROTECTION AG, priority 2019, dated 2025):

Tests used:
[1] = test system: Glomerella lagenarium (Colletotrichum lagenarium); assay: Glomerella lagenarium (Colletotrichum lagenarium) / liquid culture (anthracnose); assay type: cell-based; conditions: Colletotrichum orbiculare, liquid culture (PDB), growth inhibition photometrically 3-4 days after application, compared to untreated control
Procedure: (§1) Example B3. Glomerella lagenarium (Colletotrichum lagenarium)/Liquid Culture (Anthracnose) Conidia of the fungus from cryogenic storage are directly mixed into nutrient broth (PDB potato dextrose broth). After placing a (DMSO) solution of test compound into a microtiter plate (96-well format), the nutrient broth containing the fungal spores is added. The test plates are incubated at 24° C. and the inhibition of growth is measured photometrically 3-4 days after application. […] […]-25, and P-26.

[2] = test system: Monographella nivalis (Microdochium nivale); assay: Monographella nivalis (Microdochium nivale) / liquid culture (foot rot cereals); assay type: cell-based; conditions: liquid culture (PDB), growth inhibition photometrically 4-5 days after application, compared to untreated control
Procedure: as §1, with “B6. Monographella nivalis (Microdochium nivale)/Liquid” for “B3. Glomerella lagenarium (Colletotrichum lagenarium)/Liquid”, “(Foot Rot Cereals)” for “(Anthracnose)”, “determined” for “measured”, “4-5” for “3-4”

[3] = test system: Mycosphaerella graminicola (Septoria tritici); assay: Mycosphaerella graminicola (Septoria tritici) / liquid culture (Septoria blotch); assay type: cell-based; conditions: Zymoseptoria tritici, liquid culture (PDB), growth inhibition photometrically 4-5 days after application, compared to untreated control
Procedure: (§2) Example B11. Mycosphaerella graminicola (Septoria tritici)/Liquid Culture (Septoria Blotch) Conidia of the fungus from cryogenic storage are directly mixed into nutrient broth (PDB potato dextrose broth). After placing a (DMSO) solution of test compound into a microtiter plate (96-well format), the nutrient broth containing the fungal spores is added. The test plates are incubated at 24° C. and the inhibition of growth is determined photometrically 4-5 days after application.

[4] = test system: Puccinia recondita f. sp. tritici; assay: Puccinia recondita f. sp. tritici / wheat / leaf disc preventative (brown rust); assay type: in vivo; conditions: foliar, wheat leaf segments cv. Kanzler, inoculated 1 day after application, compared to untreated control
Procedure: Example B8. Puccinia recondita f. Sp. tritici/Wheat/Leaf Disc Preventative (Brown Rust) Wheat leaf segments cv. Kanzler are placed on agar in multiwell plates (24-well format) and sprayed with the formulated test compound diluted in water. The leaf disks are inoculated with a spore suspension of the fungus 1 day after application. The inoculated leaf segments are incubated at 19° C. and 75% rh under a light regime of 12 h light/12 h darkness in a climate cabinet and the activity of a compound is assessed as percent disease control compared to untreated when an appropriate level of disease damage appears in untreated check leaf segments (7-9 days after application). […] […]-25, and P-26.

[5] = test system: Alternaria solani; assay: Alternaria solani / tomato / leaf disc (early blight); assay type: in vivo; conditions: foliar, tomato leaf disks cv. Baby, inoculated 2 days after application, compared to untreated control
Procedure: Example B1. Alternaria solani/Tomato/Leaf Disc (Early Blight) Tomato leaf disks cv. Baby are placed on agar in multiwell plates (24-well format) and sprayed with the formulated test compound diluted in water. The leaf disks are inoculated with a spore suspension of the fungus 2 days after application. The inoculated leaf disks are incubated at 23° C./21° C. […] […]-24, and P-25.

[6] = test system: Pyrenophora teres; assay: Pyrenophora teres / barley / leaf disc preventative (net blotch); assay type: in vivo; conditions: foliar, barley leaf segments cv. Hasso, inoculated 2 days after application, compared to untreated control
Procedure: Example B10. Pyrenophora teres/Barley/Leaf Disc Preventative (Net Blotch) Barley leaf segments cv. Hasso are placed on agar in a multiwell plate (24-well format) and sprayed with the formulated test compound diluted in water. The leaf segments are inoculated with a spore suspension of the fungus 2 days after application. The inoculated leaf segments are incubated at 20° C. and 65% rh under a light regime of 12 h light/12 h darkness in a climate cabinet and the activity of a compound is assessed as disease control compared to untreated when an appropriate level of disease damage appears in untreated check leaf segments (5-7 days after application). […] […]-25, and P-26.

[7] = test system: Mycosphaerella arachidis (Cercospora arachidicola); assay: Mycosphaerella arachidis (Cercospora arachidicola) / liquid culture (early leaf spot); assay type: cell-based; conditions: liquid culture (PDB), growth inhibition photometrically 4-5 days after application, compared to untreated control
Procedure: as §2, with “B7.” for “B11.”, “arachidis (Cercospora arachidicola)/Liquid” for “graminicola (Septoria tritici)/Liquid”, “(Early Leaf Spot)” for “(Septoria Blotch)”, “application. […] […]-22, and P-25.” for “application.”

[8] = test system: Magnaporthe grisea (Pyricularia oryzae); assay: whole plant or invertebrate; assay type: in vivo; conditions: foliar, read-out: control of Magnaporthe grisea

CC1Oc2cc(Nc3ccccc3)nc(C(=O)NCC(C)(C)C)c2O1 (centres unmarked) [Compound P-1, 6-anilino-N-(2,2-dimethylpropyl)-2-methyl-[1,3]dioxolo[4,5-c]pyridine-4-carboxamide]
≥ 80%: inhibition of growth at 20 ppm [1]

CC1(C)CCC1NC(=O)c1nc(Nc2cc(F)nc(F)c2)cc2c1OCO2 (centres unmarked) [Compound P-10, 6-[(2,6-difluoro-4-pyridyl)amino]-N-(2,2-dimethylcyclobutyl)-[1,3]dioxolo[4,5-c]pyridine-4-carboxamide]
≥ 80%: inhibition of growth at 20 ppm [1] | inhibition of growth at 20 ppm [2] | inhibition of growth at 20 ppm [3]

CC(C)CCNC(=O)c1nc(Nc2cc(F)nc(F)c2)cc2c1OCO2 [Compound P-12, 6-[(2,6-difluoro-4-pyridyl)amino]-N-isopentyl-[1,3]dioxolo[4,5-c]pyridine-4-carboxamide]
≥ 80%: inhibition of growth at 20 ppm [2] | pest or weed control at 200 ppm [4] | inhibition of growth at 20 ppm [3]

CC1(NC(=O)c2nc(Nc3cc(F)cc(F)c3)cc3c2OCO3)CCOC1 (centres unmarked) [Compound P-23, 6-(3,5-difluoroanilino)-N-(3-methyltetrahydrofuran-3-yl)-[1,3]dioxolo[4,5-c]pyridine-4-carboxamide]
≥ 80%: pest or weed control at 200 ppm [5] | inhibition of growth at 20 ppm [1] | inhibition of growth at 20 ppm [2] | pest or weed control at 200 ppm [6] | inhibition of growth at 20 ppm [3]

CC1(NC(=O)c2nc(Nc3cc(F)cc(F)c3)cc3c2OCO3)CSC1 [Compound P-19, 6-(3,5-difluoroanilino)-N-(3-methylthietan-3-yl)-[1,3]dioxolo[4,5-c]pyridine-4-carboxamide]
≥ 80%: pest or weed control at 200 ppm [5] | inhibition of growth at 20 ppm [1] | inhibition of growth at 20 ppm [2] | inhibition of growth at 20 ppm [7] | pest or weed control at 200 ppm [8] | pest or weed control at 200 ppm [6] | inhibition of growth at 20 ppm [3]

CC1Oc2cc(Nc3cccc(F)c3)nc(C(=O)NCC(C)(C)C)c2O1 (centres unmarked) [Compound P-2, N-(2,2-dimethylpropyl)-6-(3-fluoroanilino)-2-methyl-[1,3]dioxolo[4,5-c]pyridine-4-carboxamide]
≥ 80%: inhibition of growth at 20 ppm [1] | inhibition of growth at 20 ppm [3]

CC(C)(C)CNC(=O)c1nc(Nc2cccc(F)c2)cc2c1OCO2 [Compound P-15, N-(2,2-dimethylpropyl)-6-(3-fluoroanilino)-[1,3]dioxolo[4,5-c]pyridine-4-carboxamide]
≥ 80%: inhibition of growth at 20 ppm [1] | inhibition of growth at 20 ppm [2] | inhibition of growth at 20 ppm [7] | pest or weed control at 200 ppm [8] | pest or weed control at 200 ppm [6] | inhibition of growth at 20 ppm [3]

CC(C)(C)CC(C)(C)NC(=O)c1nc(Nc2cc(F)cc(F)c2)cc2c1OCO2 [Compound P-17, 6-(3,5-difluoroanilino)-N-(1,1,3,3-tetramethylbutyl)-[1,3]dioxolo[4,5-c]pyridine-4-carboxamide]
≥ 80%: inhibition of growth at 20 ppm [2] | pest or weed control at 200 ppm [8] | inhibition of growth at 20 ppm [3]

CC1Oc2cc(Nc3cc(F)cc(F)c3)nc(C(=O)NCC(C)(C)C)c2O1 (centres unmarked) [Compound P-3, 6-(3,5-difluoroanilino)-N-(2,2-dimethylpropyl)-2-methyl-[1,3]dioxolo[4,5-c]pyridine-4-carboxamide]
≥ 80%: inhibition of growth at 20 ppm [1]

CC1(C)CCC1NC(=O)c1nc(Nc2cc(F)cc(F)c2)cc2c1OCO2 (centres unmarked) [Compound P-11, 6-(3,5-difluoroanilino)-N-(2,2-dimethylcyclobutyl)-[1,3]dioxolo[4,5-c]pyridine-4-carboxamide]
≥ 80%: inhibition of growth at 20 ppm [1] | inhibition of growth at 20 ppm [2] | inhibition of growth at 20 ppm [7] | pest or weed control at 200 ppm [4] | inhibition of growth at 20 ppm [3]

CC1(NC(=O)c2nc(Nc3cc(F)cc(F)c3)cc3c2OCO3)CCCCC1 [Compound P-26, 6-(3,5-difluoroanilino)-N-(1-methylcyclohexyl)-[1,3]dioxolo[4,5-c]pyridine-4-carboxamide]
≥ 80%: inhibition of growth at 20 ppm [1] | inhibition of growth at 20 ppm [2] | pest or weed control at 200 ppm [4] | pest or weed control at 200 ppm [8] | pest or weed control at 200 ppm [6] | inhibition of growth at 20 ppm [3]

CC1(NC(=O)c2nc(Nc3cc(F)cc(F)c3)cc3c2OCO3)COC1 [Compound P-24, 6-(3,5-difluoroanilino)-N-(3-methyloxetan-3-yl)-[1,3]dioxolo[4,5-c]pyridine-4-carboxamide]
≥ 80%: pest or weed control at 200 ppm [5] | inhibition of growth at 20 ppm [1] | inhibition of growth at 20 ppm [2] | pest or weed control at 200 ppm [8] | inhibition of growth at 20 ppm [3]

CC1(C)CCC1NC(=O)c1nc(N(C#N)c2cc(F)cc(F)c2)cc2c1OCO2 (centres unmarked) [Compound P-7, 6-(N-cyano-3,5-difluoro-anilino)-N-(2,2-dimethylcyclobutyl)-[1,3]dioxolo[4,5-c]pyridine-4-carboxamide]
≥ 80%: inhibition of growth at 20 ppm [1] | inhibition of growth at 20 ppm [2] | inhibition of growth at 20 ppm [3]

CC(C)(NC(=O)c1nc(Nc2cc(F)cc(F)c2)cc2c1OCO2)c1ccccc1 [Compound P-20, 6-(3,5-difluoroanilino)-N-(1-methyl-1-phenyl-ethyl)-[1,3]dioxolo[4,5-c]pyridine-4-carboxamide]
≥ 80%: inhibition of growth at 20 ppm [1] | inhibition of growth at 20 ppm [2] | inhibition of growth at 20 ppm [3]

CC(C)(C)CNC(=O)c1nc(Nc2cc(F)cc(F)c2)cc2c1OCO2 [Compound P-5, 6-(3,5-difluoroanilino)-N-(2,2-dimethylpropyl)-[1,3]dioxolo[4,5-c]pyridine-4-carboxamide]
≥ 80%: inhibition of growth at 20 ppm [1] | inhibition of growth at 20 ppm [2] | pest or weed control at 200 ppm [8] | pest or weed control at 200 ppm [6] | inhibition of growth at 20 ppm [3]

CC1(C)CCC1NC(=O)c1nc(Nc2cc(F)cc(F)c2)cc2c1OC(F)(F)O2 (centres unmarked) [Compound P-6, 6-(3,5-difluoroanilino)-N-(2,2-dimethylcyclobutyl)-2,2-difluoro-[1,3]dioxolo[4,5-c]pyridine-4-carboxamide]
≥ 80%: inhibition of growth at 20 ppm [1] | inhibition of growth at 20 ppm [2]

CCC(C)(C)NC(=O)c1nc(Nc2cc(F)cc(F)c2)cc2c1OCO2 [Compound P-18, 6-(3,5-difluoroanilino)-N-(1,1-dimethylpropyl)-[1,3]dioxolo[4,5-c]pyridine-4-carboxamide]
≥ 80%: inhibition of growth at 20 ppm [1] | inhibition of growth at 20 ppm [2] | inhibition of growth at 20 ppm [7] | pest or weed control at 200 ppm [4] | pest or weed control at 200 ppm [8] | pest or weed control at 200 ppm [6] | inhibition of growth at 20 ppm [3]

CC(C)(C)CNC(=O)c1nc(Nc2cncc(F)c2)cc2c1OCO2 [Compound P-14, N-(2,2-dimethylpropyl)-6-[(5-fluoro-3-pyridyl)amino]-[1,3]dioxolo[4,5-c]pyridine-4-carboxamide]
≥ 80%: inhibition of growth at 20 ppm [1] | inhibition of growth at 20 ppm [2] | pest or weed control at 200 ppm [8] | inhibition of growth at 20 ppm [3]

CC1(C)CCC1NC(=O)c1nc(Nc2ccccc2)cc2c1OCO2 (centres unmarked) [Compound P-9, 6-anilino-N-(2,2-dimethylcyclobutyl)-[1,3]dioxolo[4,5-c]pyridine-4-carboxamide]
≥ 80%: pest or weed control at 200 ppm [5] | inhibition of growth at 20 ppm [1] | inhibition of growth at 20 ppm [2] | inhibition of growth at 20 ppm [7] | pest or weed control at 200 ppm [6] | inhibition of growth at 20 ppm [3]
